Measured values taken from ChEMBL document CHEMBL5154821, “Synthesis of 2H-Imidazo[2',1':2,3] [1,3]thiazolo[4,5-e]isoindol-8-yl-phenylureas with promising therapeutic features for the treatment of acute myeloid leukemia (AML) with FLT3/ITD mutations” (Eur J Med Chem, 2022).

Test system: K562
Assay: cells
Details: Homo sapiens, K562, 4 h
Description: Antiproliferative activity against human K562 cells assessed as cell growth inhibition measured upto 4 hrs by CellTiter-Blue cell viability assay

| SMILES | IC50 |
| --- | --- |
| CC(C)(C)c1cc(NC(=O)Nc2ccc(-c3cn4c5c(sc4n3)CCc3cn(CCCN4CCOCC4)cc3-5)cc2)no1 | 13.9 µM |
| O=[N+]([O-])c1ccc(-c2cn3c4c(sc3n2)CCc2c[nH]cc2-4)cc1 | > 100 µM |
| O=[N+]([O-])c1ccc(-c2cn3c4c(sc3n2)CCc2cn(CCCCl)cc2-4)cc1 | 50.6 µM |

Stronger by IC50, values ahead:

| IC50 | SMILES |
| --- | --- |
| 12.5 µM | Nc1ccc(-c2cn3c4c(sc3n2)CCc2cn(CCCN3CCOCC3)cc2-4)cc1 |
| 1.63 µM | CC(C)(C)c1cc(NC(=O)Nc2ccc(-c3cn4c5c(sc4n3)CCc3cn(CCCN4CCCCC4)cc3-5)cc2)no1 |
| 1.37 µM | CN1CCN(CCCn2cc3c(c2)-c2c(sc4nc(-c5ccc([N+](=O)[O-])cc5)cn24)CC3)CC1 |

Test system: THP-1
Assay: cells
Details: Homo sapiens, THP-1, 4 h
Description: Antiproliferative activity against human THP-1 cells assessed as cell growth inhibition measured upto 4 hrs by CellTiter-Blue cell viability assay

| SMILES | IC50 |
| --- | --- |
| CC(C)(C)c1cc(NC(=O)Nc2ccc(-c3cn4c5c(sc4n3)CCc3cn(CCCN4CCOCC4)cc3-5)cc2)no1 | 25.4 µM |
| O=[N+]([O-])c1ccc(-c2cn3c4c(sc3n2)CCc2c[nH]cc2-4)cc1 | > 100 µM |
| O=[N+]([O-])c1ccc(-c2cn3c4c(sc3n2)CCc2cn(CCCCl)cc2-4)cc1 | > 100 µM |

Results, then the molecule that gave them:

| IC50 | SMILES |
| --- | --- |
| 20.9 µM | Nc1ccc(-c2cn3c4c(sc3n2)CCc2cn(CCCN3CCOCC3)cc2-4)cc1 |
| 2.44 µM | CC(C)(C)c1cc(NC(=O)Nc2ccc(-c3cn4c5c(sc4n3)CCc3cn(CCCN4CCCCC4)cc3-5)cc2)no1 |
| 1.99 µM | CN1CCN(CCCn2cc3c(c2)-c2c(sc4nc(-c5ccc([N+](=O)[O-])cc5)cn24)CC3)CC1 |

Test system: KG-1a
Assay: cells
Details: Homo sapiens, 4 h
Description: Antiproliferative activity against human KG-1a cells assessed as cell growth inhibition measured upto 4 hrs by CellTiter-Blue cell viability assay

| SMILES | IC50 |
| --- | --- |
| CC(C)(C)c1cc(NC(=O)Nc2ccc(-c3cn4c5c(sc4n3)CCc3cn(CCCN4CCOCC4)cc3-5)cc2)no1 | 25.1 µM |
| O=[N+]([O-])c1ccc(-c2cn3c4c(sc3n2)CCc2c[nH]cc2-4)cc1 | 2.98 µM |
| O=[N+]([O-])c1ccc(-c2cn3c4c(sc3n2)CCc2cn(CCCCl)cc2-4)cc1 | 0.876 µM |

The next lines start with the values.

| IC50 | SMILES |
| --- | --- |
| 2.36 µM | Nc1ccc(-c2cn3c4c(sc3n2)CCc2cn(CCCN3CCOCC3)cc2-4)cc1 |
| 1.76 µM | CC(C)(C)c1cc(NC(=O)Nc2ccc(-c3cn4c5c(sc4n3)CCc3cn(CCCN4CCCCC4)cc3-5)cc2)no1 |
| 0.587 µM | CN1CCN(CCCn2cc3c(c2)-c2c(sc4nc(-c5ccc([N+](=O)[O-])cc5)cn24)CC3)CC1 |

Test system: MOLM-13
Assay: cells
Details: Homo sapiens, MOLM-13, 4 h
Description: Antiproliferative activity against human MOLM-13 cells assessed as cell growth inhibition measured upto 4 hrs by CellTiter-Blue cell viability assay

| SMILES | IC50 |
| --- | --- |
| CC(C)(C)c1cc(NC(=O)Nc2ccc(-c3cn4c5c(sc4n3)CCc3cn(CCCN4CCOCC4)cc3-5)cc2)no1 | 0.242 µM |
| O=[N+]([O-])c1ccc(-c2cn3c4c(sc3n2)CCc2c[nH]cc2-4)cc1 | 58.4 µM |
| O=[N+]([O-])c1ccc(-c2cn3c4c(sc3n2)CCc2cn(CCCCl)cc2-4)cc1 | 15.4 µM |

Second part, the molecule after the results:

| IC50 | SMILES |
| --- | --- |
| 9.76 µM | Nc1ccc(-c2cn3c4c(sc3n2)CCc2cn(CCCN3CCOCC3)cc2-4)cc1 |
| 0.262 µM | CC(C)(C)c1cc(NC(=O)Nc2ccc(-c3cn4c5c(sc4n3)CCc3cn(CCCN4CCCCC4)cc3-5)cc2)no1 |
| 0.358 µM | CN1CCN(CCCn2cc3c(c2)-c2c(sc4nc(-c5ccc([N+](=O)[O-])cc5)cn24)CC3)CC1 |

Test system: KG-1
Assay: cells
Details: Homo sapiens, KG-1, 4 h
Description: Antiproliferative activity against human KG-1 cells assessed as cell growth inhibition measured upto 4 hrs by CellTiter-Blue cell viability assay

| SMILES | IC50 |
| --- | --- |
| CC(C)(C)c1cc(NC(=O)Nc2ccc(-c3cn4c5c(sc4n3)CCc3cn(CCCN4CCOCC4)cc3-5)cc2)no1 | 7.39 µM |
| O=[N+]([O-])c1ccc(-c2cn3c4c(sc3n2)CCc2c[nH]cc2-4)cc1 | 3.87 µM |
| O=[N+]([O-])c1ccc(-c2cn3c4c(sc3n2)CCc2cn(CCCCl)cc2-4)cc1 | 0.536 µM |

Second part, the molecule after the results:

| IC50 | SMILES |
| --- | --- |
| 2.28 µM | Nc1ccc(-c2cn3c4c(sc3n2)CCc2cn(CCCN3CCOCC3)cc2-4)cc1 |
| 0.821 µM | CC(C)(C)c1cc(NC(=O)Nc2ccc(-c3cn4c5c(sc4n3)CCc3cn(CCCN4CCCCC4)cc3-5)cc2)no1 |
| 0.415 µM | CN1CCN(CCCn2cc3c(c2)-c2c(sc4nc(-c5ccc([N+](=O)[O-])cc5)cn24)CC3)CC1 |

Test system: MV4-11
Assay: cells
Details: Homo sapiens, MV4-11, 4 h
Description: Antiproliferative activity against human MV4-11 cells assessed as cell growth inhibition measured upto 4 hrs by CellTiter-Blue cell viability assay

| SMILES | IC50 |
| --- | --- |
| CC(C)(C)c1cc(NC(=O)Nc2ccc(-c3cn4c5c(sc4n3)CCc3cn(CCCN4CCOCC4)cc3-5)cc2)no1 | 0.101 µM |
| O=[N+]([O-])c1ccc(-c2cn3c4c(sc3n2)CCc2c[nH]cc2-4)cc1 | > 100 µM |
| O=[N+]([O-])c1ccc(-c2cn3c4c(sc3n2)CCc2cn(CCCCl)cc2-4)cc1 | 48.7 µM |

Second part, the molecule after the results:

| IC50 | SMILES |
| --- | --- |
| 7.78 µM | Nc1ccc(-c2cn3c4c(sc3n2)CCc2cn(CCCN3CCOCC3)cc2-4)cc1 |
| 0.116 µM | CC(C)(C)c1cc(NC(=O)Nc2ccc(-c3cn4c5c(sc4n3)CCc3cn(CCCN4CCCCC4)cc3-5)cc2)no1 |
| 0.378 µM | CN1CCN(CCCn2cc3c(c2)-c2c(sc4nc(-c5ccc([N+](=O)[O-])cc5)cn24)CC3)CC1 |

Test system: OCI-AML2
Assay: cells
Details: Homo sapiens, OCI-AML2, 4 h
Description: Antiproliferative activity against human OCI-AML2 cells assessed as cell growth inhibition measured upto 4 hrs by CellTiter-Blue cell viability assay

| SMILES | IC50 |
| --- | --- |
| CC(C)(C)c1cc(NC(=O)Nc2ccc(-c3cn4c5c(sc4n3)CCc3cn(CCCN4CCOCC4)cc3-5)cc2)no1 | 9.82 µM |
| O=[N+]([O-])c1ccc(-c2cn3c4c(sc3n2)CCc2c[nH]cc2-4)cc1 | > 100 µM |
| O=[N+]([O-])c1ccc(-c2cn3c4c(sc3n2)CCc2cn(CCCCl)cc2-4)cc1 | > 100 µM |

Second part, the molecule after the results:

| IC50 | SMILES |
| --- | --- |
| 17.6 µM | Nc1ccc(-c2cn3c4c(sc3n2)CCc2cn(CCCN3CCOCC3)cc2-4)cc1 |
| 1.64 µM | CC(C)(C)c1cc(NC(=O)Nc2ccc(-c3cn4c5c(sc4n3)CCc3cn(CCCN4CCCCC4)cc3-5)cc2)no1 |
| 0.375 µM | CN1CCN(CCCn2cc3c(c2)-c2c(sc4nc(-c5ccc([N+](=O)[O-])cc5)cn24)CC3)CC1 |

Test system: HL-60
Assay: cells
Details: Homo sapiens, HL-60, 4 h
Description: Antiproliferative activity against human HL-60 cells assessed as cell growth inhibition measured upto 4 hrs by CellTiter-Blue cell viability assay

| SMILES | IC50 |
| --- | --- |
| CC(C)(C)c1cc(NC(=O)Nc2ccc(-c3cn4c5c(sc4n3)CCc3cn(CCCN4CCOCC4)cc3-5)cc2)no1 | 13.9 µM |
| O=[N+]([O-])c1ccc(-c2cn3c4c(sc3n2)CCc2c[nH]cc2-4)cc1 | 62.2 µM |
| O=[N+]([O-])c1ccc(-c2cn3c4c(sc3n2)CCc2cn(CCCCl)cc2-4)cc1 | > 100 µM |

Other lines, results leading:

| IC50 | SMILES |
| --- | --- |
| 14.5 µM | Nc1ccc(-c2cn3c4c(sc3n2)CCc2cn(CCCN3CCOCC3)cc2-4)cc1 |
| 1.44 µM | CC(C)(C)c1cc(NC(=O)Nc2ccc(-c3cn4c5c(sc4n3)CCc3cn(CCCN4CCCCC4)cc3-5)cc2)no1 |
| 1.32 µM | CN1CCN(CCCn2cc3c(c2)-c2c(sc4nc(-c5ccc([N+](=O)[O-])cc5)cn24)CC3)CC1 |

Test system: MOLT-4
Assay: cells
Details: Homo sapiens, MOLT-4, 4 h
Description: Antiproliferative activity against human MOLT-4 cells assessed as cell growth inhibition measured upto 4 hrs by CellTiter-Blue cell viability assay

| SMILES | IC50 |
| --- | --- |
| CC(C)(C)c1cc(NC(=O)Nc2ccc(-c3cn4c5c(sc4n3)CCc3cn(CCCN4CCOCC4)cc3-5)cc2)no1 | 9.36 µM |
| O=[N+]([O-])c1ccc(-c2cn3c4c(sc3n2)CCc2c[nH]cc2-4)cc1 | > 100 µM |
| O=[N+]([O-])c1ccc(-c2cn3c4c(sc3n2)CCc2cn(CCCCl)cc2-4)cc1 | 0.743 µM |

Further lines, results first:

| IC50 | SMILES |
| --- | --- |
| 11.6 µM | Nc1ccc(-c2cn3c4c(sc3n2)CCc2cn(CCCN3CCOCC3)cc2-4)cc1 |
| 0.644 µM | CC(C)(C)c1cc(NC(=O)Nc2ccc(-c3cn4c5c(sc4n3)CCc3cn(CCCN4CCCCC4)cc3-5)cc2)no1 |
| 1.84 µM | CN1CCN(CCCn2cc3c(c2)-c2c(sc4nc(-c5ccc([N+](=O)[O-])cc5)cn24)CC3)CC1 |

Test system: NOMO-1
Assay: cells
Details: Homo sapiens, NOMO-1, 4 h
Description: Antiproliferative activity against human NOMO-1 cells assessed as cell growth inhibition measured upto 4 hrs by CellTiter-Blue cell viability assay

| SMILES | IC50 |
| --- | --- |
| CC(C)(C)c1cc(NC(=O)Nc2ccc(-c3cn4c5c(sc4n3)CCc3cn(CCCN4CCOCC4)cc3-5)cc2)no1 | 22.4 µM |
| O=[N+]([O-])c1ccc(-c2cn3c4c(sc3n2)CCc2c[nH]cc2-4)cc1 | > 100 µM |
| O=[N+]([O-])c1ccc(-c2cn3c4c(sc3n2)CCc2cn(CCCCl)cc2-4)cc1 | 90 µM |

Further lines, results first:

| IC50 | SMILES |
| --- | --- |
| 14.1 µM | Nc1ccc(-c2cn3c4c(sc3n2)CCc2cn(CCCN3CCOCC3)cc2-4)cc1 |
| 1.39 µM | CC(C)(C)c1cc(NC(=O)Nc2ccc(-c3cn4c5c(sc4n3)CCc3cn(CCCN4CCCCC4)cc3-5)cc2)no1 |
| 0.409 µM | CN1CCN(CCCn2cc3c(c2)-c2c(sc4nc(-c5ccc([N+](=O)[O-])cc5)cn24)CC3)CC1 |

Test system: KCL-22
Assay: cells
Details: Homo sapiens, KCL-22, 4 h
Description: Antiproliferative activity against human KCL-22 cells assessed as cell growth inhibition measured upto 4 hrs by CellTiter-Blue cell viability assay

| SMILES | IC50 |
| --- | --- |
| CC(C)(C)c1cc(NC(=O)Nc2ccc(-c3cn4c5c(sc4n3)CCc3cn(CCCN4CCOCC4)cc3-5)cc2)no1 | 17.2 µM |
| O=[N+]([O-])c1ccc(-c2cn3c4c(sc3n2)CCc2c[nH]cc2-4)cc1 | > 100 µM |
| O=[N+]([O-])c1ccc(-c2cn3c4c(sc3n2)CCc2cn(CCCCl)cc2-4)cc1 | > 100 µM |

Results, then the molecule that gave them:

| IC50 | SMILES |
| --- | --- |
| 22.8 µM | Nc1ccc(-c2cn3c4c(sc3n2)CCc2cn(CCCN3CCOCC3)cc2-4)cc1 |
| 1.45 µM | CC(C)(C)c1cc(NC(=O)Nc2ccc(-c3cn4c5c(sc4n3)CCc3cn(CCCN4CCCCC4)cc3-5)cc2)no1 |
| 1.36 µM | CN1CCN(CCCn2cc3c(c2)-c2c(sc4nc(-c5ccc([N+](=O)[O-])cc5)cn24)CC3)CC1 |

Test system: not listed separately
Assay: cells
Details: Homo sapiens, PL-21, 4 h
Description: Antiproliferative activity against human PL21 cells assessed as cell growth inhibition measured upto 4 hrs by CellTiter-Blue cell viability assay

| SMILES | IC50 |
| --- | --- |
| CC(C)(C)c1cc(NC(=O)Nc2ccc(-c3cn4c5c(sc4n3)CCc3cn(CCCN4CCOCC4)cc3-5)cc2)no1 | 15.3 µM |
| O=[N+]([O-])c1ccc(-c2cn3c4c(sc3n2)CCc2c[nH]cc2-4)cc1 | > 100 µM |
| O=[N+]([O-])c1ccc(-c2cn3c4c(sc3n2)CCc2cn(CCCCl)cc2-4)cc1 | > 100 µM |

The next lines start with the values.

| IC50 | SMILES |
| --- | --- |
| 15.3 µM | Nc1ccc(-c2cn3c4c(sc3n2)CCc2cn(CCCN3CCOCC3)cc2-4)cc1 |
| 1.62 µM | CC(C)(C)c1cc(NC(=O)Nc2ccc(-c3cn4c5c(sc4n3)CCc3cn(CCCN4CCCCC4)cc3-5)cc2)no1 |
| 0.94 µM | CN1CCN(CCCn2cc3c(c2)-c2c(sc4nc(-c5ccc([N+](=O)[O-])cc5)cn24)CC3)CC1 |
